Experimental data taken from patent US20220323406A1, “METHODS AND COMPOSITIONS FOR DIFFERENTIATING STEM CELLS” (Massachusetts Institute of Technology, priority 2019, published 2022).
Counter-ions that a name gives are not always drawn.

How the values were obtained:
Details in all cases: primary screen
ENR+CD organoids = assay: Primary screen: ATP (CellTiter-Glo 3D, CTG) cell number/viability, 2.5-D 384-well ENR+CD organoids;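 further: compounds given at plating and again on day 3 over a 6-day differentiation from ENR+CV stem-cell-enriched precursors, ATP measured on day 6, plate median as control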
[1] = system: ENR+CD organoids (ISC to Paneth cell differentiation); assay: Primary screen: basal (non-stimulated) lysozyme secretion LYZ.NS, 2.5-D 384-well ENR+CD organoid differentiation; assay type: cell-based, mouse
Description: (§1) High-throughput screening.

[2] = system: ENR+CD organoids (ISC to Paneth cell differentiation); assay: Primary screen: CCh-stimulated lysozyme secretion LYZ.S, 2.5-D 384-well ENR+CD organoid differentiation; assay type: cell-based, mouse
Description: as §1

Structure (SMILES) | Dose.FC.CTG (ENR+CD organoids; dose 0.08 uM) [log2 fold change] | Z.CTG (standard z score) (ENR+CD organoids; dose 0.08 uM) | Dose.FC.CTG (ENR+CD organoids; dose 0.40 uM) [log2 fold change] | Z.CTG (standard z score) (ENR+CD organoids; dose 0.40 uM) | Dose.FC.CTG (ENR+CD organoids; dose 2.00 uM) [log2 fold change] | Z.CTG (standard z score) (ENR+CD organoids; dose 2.00 uM) | Dose.FC.CTG (ENR+CD organoids; dose 10.00 uM) [log2 fold change] | Z.CTG (standard z score) (ENR+CD organoids; dose 10.00 uM) | Dose.FC.LYZ.NS ([1]; dose 0.08 uM) [log2 fold change] | Z.LYZ.NS (standard z score) ([1]; dose 0.08 uM) | Dose.FC.LYZ.NS ([1]; dose 0.40 uM) [log2 fold change] | Z.LYZ.NS (standard z score) ([1]; dose 0.40 uM) | Dose.FC.LYZ.NS ([1]; dose 2.00 uM) [log2 fold change] | Z.LYZ.NS (standard z score) ([1]; dose 2.00 uM) | Dose.FC.LYZ.NS ([1]; dose 10.00 uM) [log2 fold change] | Z.LYZ.NS (standard z score) ([1]; dose 10.00 uM) | Dose.FC.LYZ.S ([2]; dose 0.08 uM) [log2 fold change] | Dose.FC.LYZ.S ([2]; dose 0.40 uM) [log2 fold change] | Dose.FC.LYZ.S ([2]; dose 2.00 uM) [log2 fold change] | Dose.FC.LYZ.S ([2]; dose 10.00 uM) [log2 fold change]
O=C(NCc1ccccc1)c1csc(Nc2ccncn2)n1 [Thiazovivin] | 0.141 | 0.337 | 0.113 | 0.271 | 0.312 | 0.746 | 0.189 | 0.451 | 0.090 | 0.780 | 0.070 | 0.611 | 0.024 | 0.205 | −0.069 | −0.605 | 0.142 | 0.060 | 0.064 | 0.037
CCCSc1nc(N[C@@H]2C[C@H]2c2ccc(F)c(F)c2)c2nnn([C@@H]3C[C@H](OCCO)[C@@H](O)[C@H]3O)c2n1 [Ticagrelor] | −0.080 |  | −0.029 |  | −0.270 |  | −0.241 |  | 0.115 | 0.998 | −0.032 | −0.276 | 0.120 | 1.041 | 0.020 | 0.170 | 0.042 | 0.000 | 0.018 | 0.022
Clc1ccccc1CN1CCc2sccc2C1 [Ticlopidine HCl] | −0.118 |  | −0.041 |  | −0.234 |  | −0.005 |  | 0.043 | 0.373 | 0.010 | 0.084 | −0.002 | −0.018 | −0.035 | −0.308 | 0.052 | 0.072 | −0.022 | 0.076
COc1ccc2cc(-c3nc(-c4ccc([S+](C)[O-])cc4)[nH]c3-c3ccncc3)ccc2c1 (centres unmarked) [Tie2 kinase inhibitor] | 0.005 | 0.012 | 0.074 | 0.177 | −0.314 | −0.750 | −0.549 | −1.311 | 0.009 | 0.080 | 0.002 | 0.019 | 0.181 | 1.577 | −0.031 | −0.274 | 0.018 | −0.021 | 0.024 | −0.097
O=c1oc2cc(O)ccc2s1 [Tioxolone] | 0.246 |  | 0.089 |  | 0.044 |  | 0.328 |  | 0.099 | 0.864 | 0.012 | 0.101 | 0.053 | 0.462 | 0.023 | 0.202 | 0.149 | 0.000 | 0.023 | 0.028
C[C@@H]1CCN(C(=O)CC#N)C[C@@H]1N(C)c1ncnc2[nH]ccc12 [Tofacitinib (CP-690550, Tasocitinib)] | 0.130 | 0.312 | 0.249 | 0.595 | 0.117 | 0.278 | 0.236 | 0.563 | −0.017 | −0.146 | −0.015 | −0.132 | −0.007 | −0.061 | −0.004 | −0.036 | 0.022 | 0.010 | 0.025 | 0.010
c1ccc(CC2=NCCN2)cc1 [Tolazoline HCl] | 0.245 |  | 0.222 |  | −0.051 |  | −0.208 |  | 0.144 | 1.255 | 0.084 | 0.728 | 0.088 | 0.765 | −0.049 | −0.424 | 0.169 | 0.128 | 0.069 | −0.063
Cc1c(Cl)cccc1Nc1ccccc1C(=O)O [Tolfenamic Acid] | 0.196 |  | −0.003 |  | −0.159 |  | −0.115 |  | 0.028 | 0.242 | 0.023 | 0.200 | 0.107 | 0.927 | −0.039 | −0.343 | 0.118 | 0.052 | −0.023 | −0.064
Cc1ccccc1C(=O)Nc1ccc(C(=O)N2CCCC(O)c3cc(Cl)ccc32)c(C)c1 (centres unmarked) [Tolvaptan] | 0.095 |  | −0.008 |  | −0.094 |  | −0.104 |  | 0.049 | 0.429 | −0.041 | −0.355 | −0.023 | −0.204 | −0.093 | −0.807 | 0.086 | 0.031 | −0.048 | −0.150
CCOC(=O)N1c2ccc(C(F)(F)F)cc2[C@@H](N(Cc2cc(C(F)(F)F)cc(C(F)(F)F)c2)C(=O)OC)C[C@H]1CC [Torcetrapib] | 0.283 |  | 0.061 |  | −0.121 |  | −0.151 |  | 0.114 | 0.991 | −0.063 | −0.546 | −0.136 | −1.185 | −0.012 | −0.108 | 0.320 | 0.045 | −0.098 | −0.056
CN(C)CCOc1ccc(/C(=C(/CCCl)c2ccccc2)c2ccccc2)cc1 [Toremifene Citrate] | 0.344 |  | 0.119 |  | −1.012 |  | −1.396 |  | 0.051 | 0.446 | 0.060 | 0.522 | 0.030 | 0.258 | −0.198 | −1.721 | 0.078 | 0.229 | −0.034 | −0.283
